According to patent US7138361B2, “Herbicidal heterocycles” (E. I. du Pont de Nemours and Company, priority 2000, dated 2006):

Tests used:
Format in all cases: in vivo
[1] = system: Surinam grass (Brachiaria decumbens); experiment: Test B preemergence
Method in brief: (§1)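 Preemergence: seeds planted and treated with test chemicals in non-phytotoxic solvent with surfactant; postemergence on plants 2–18 cm (1- to 4-leaf stage). Kept in greenhouse 13–15 days, then visually rated against controls on a 0 (no effect) to 100 (complete control) scale.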

[2] = system: barnyardgrass (Echinochloa crus-galli); experiment: Test B preemergence
Method in brief: as §1

[3] = system: cocklebur (Xanthium strumarium); experiment: Test B preemergence
Method in brief: as §1

corn (Zea mays) = experiment: Test B preemergence
Method in brief: as §1

[4] = system: crabgrass (Digitaria sanguinalis); experiment: Test B preemergence
Method in brief: as §1

[5] = system: giant foxtail (Setaria faberii); experiment: Test B preemergence
Method in brief: as §1

[6] = system: lambsquarters (Chenopodium album); experiment: Test B preemergence
Method in brief: as §1

[7] = system: morning glory (Ipomoea hederacea); experiment: Test B preemergence
Method in brief: as §1

[8] = system: pigweed (Amaranthus retroflexus); experiment: Test B preemergence
Method in brief: as §1

rice (Oryza saliva) = experiment: Test B preemergence
Method in brief: as §1

[9] = system: velvetleaf (Abutilon theophrasti); experiment: Test B preemergence
Method in brief: as §1

Nightshade = experiment: Test C preemergence
[10] = system: Surinam grass (Brachiaria decumbens); experiment: Test C preemergence; conditions: for Plant response rating (0 to 100), Surinam grass: visual evaluation after 12 to 14 days
Method in brief: (§2)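 Plants held in greenhouse for 12–14 days post-application are scored by eye against controls on a 0–100 control scale. Application timing: preemergence on sown seed, or postemergence on 2–18 cm plants.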

[11] = system: cocklebur (Xanthium strumarium); experiment: Test C preemergence; conditions: for Plant response rating (0 to 100), Cocklebur: visual evaluation after 12 to 14 days
Method in brief: as §2

[12] = system: common ragweed (Ambrosia elatior); experiment: Test C preemergence; conditions: for Plant response rating (0 to 100), Ragweed, Common: Rate 500 g/ha, visual evaluation after 12 to 14 days
Method in brief: as §2

[13] = system: crabgrass (Digitaria sanguinalis); experiment: Test C preemergence; conditions: for Plant response rating (0 to 100), Crabgrass: visual evaluation after 12 to 14 days
Method in brief: as §2

[14] = system: goosegrass (Eleusine indica); experiment: Test C preemergence; conditions: for Plant response rating (0 to 100), Goosegrass: visual evaluation after 12 to 14 days
Method in brief: as §2

[15] = system: lambsquarters (Chenopodium album); experiment: Test C preemergence; conditions: for Plant response rating (0 to 100), Lambsquarters: Rate 500 g/ha, visual evaluation after 12 to 14 days
Method in brief: as §2

[16] = system: pigweed (Amaranthus retroflexus); experiment: Test C preemergence; conditions: for Plant response rating (0 to 100), Pigweed: Rate 500 g/ha, visual evaluation after 12 to 14 days
Method in brief: as §2

soybean (Glycine max) = experiment: Test C preemergence; conditions: for Plant response rating (0 to 100), Soybean: Rate 500 g/ha, visual evaluation after 12 to 14 days
Method in brief: as §2

[17] = system: woolly cupgrass (Eriochloa villosa); experiment: Test C preemergence; conditions: for Plant response rating (0 to 100), Cupgrass, Woolly: visual evaluation after 12 to 14 days
Method in brief: as §2

[18] = Preemergence, Rate 500 g/ha, scale 0 to 100, 0 no effect, 100 complete control
[19] = preemergence, Rate 125 g/ha, scale of 0 to 100 where 0 is no effect and 100 is complete control, 13 to 15 days
[20] = Rate 125 g/ha, scale 0 to 100, 0 no effect, 100 complete control
[21] = Rate 250 g/ha, scale 0 to 100, 0 no effect, 100 complete control
[22] = preemergence, Rate 62 g/ha, scale 0 to 100
[23] = preemergence, Rate 250 g/ha, scale 0 to 100, 0 no effect, 100 complete control
[24] = Rate 62 g/ha, scale 0 to 100, 0 no effect, 100 complete control

## CCC(CC)c1ccn(C2CCN(c3cccc(OC)c3)C2=O)n1 (centres unmarked) [Compound 96]
[1]; [18]
  Plant response rating, Surinam grass: 80
[1]; [19]
  Plant response rating, Surinam grass: 50
[2]; [18]
  Plant response rating, Barnyardgrass: 100
[2]; [19]
  Plant response rating, Barnyardgrass: 100
[3]; [18]
  Plant response rating, Cocklebur: 30
[3]; [19]
  Plant response rating, Cocklebur: 20
Corn (Zea mays); [18]
  Plant response rating, Corn: 20
Corn (Zea mays); [19]
  Plant response rating, Corn: 0
[4]; [18]
  Plant response rating, Crabgrass: 100
[4]; [19]
  Plant response rating, Crabgrass: 100
[5]; [18]
  Plant response rating, Foxtail, Giant: 100
[5]; [19]
  Plant response rating, Foxtail, Giant: 100
[6]; [18]
  Plant response rating, Lambsquarters: 100
[6]; [19]
  Plant response rating, Lambsquarters: 100
[7]; [18]
  Plant response rating, Morningglory: 80
[7]; [19]
  Plant response rating, Morningglory: 0
[8]; [18]
  Plant response rating, Pigweed: 100
[8]; [19]
  Plant response rating, Pigweed: 100
Rice (Oryza saliva); [18]
  Plant response rating, Rice: 100
Rice (Oryza saliva); [19]
  Plant response rating, Rice: 70
[9]; [18]
  Plant response rating, Velvetleaf: 50
[9]; [19]
  Plant response rating, Velvetleaf: 0
Nightshade; Rate 62 g/ha, scale 0 to 100
  Plant response rating, Nightshade: 0
Nightshade; [20]
  Plant response rating, Nightshade: 10
Nightshade; [21]
  Plant response rating, Nightshade: 60
[10]; [20]
  Plant response rating, Surinam grass: 90
[10]; [22]
  Plant response rating, Surinam grass: 50
[10]; preemergence, Rate 500 g/ha
  Plant response rating (0 to 100), Surinam grass: 100
[10]; [23]
  Plant response rating, Surinam grass: 100
[11]; [20]
  Plant response rating, Cocklebur: 20
[11]; [22]
  Plant response rating, Cocklebur: 0
[11]; preemergence, Rate 500 g/ha
  Plant response rating (0 to 100), Cocklebur: 30
[11]; [23]
  Plant response rating, Cocklebur: 30
[12]; [20]
  Plant response rating, Ragweed, Common: 0
[12]; [22]
  Plant response rating, Ragweed, Common: 0
[12]; preemergence
  Plant response rating (0 to 100), Ragweed, Common: 70
[12]; [23]
  Plant response rating, Ragweed, Common: 40
[13]; [20]
  Plant response rating, Crabgrass: 100
[13]; [22]
  Plant response rating, Crabgrass: 100
[13]; preemergence, Rate 500 g/ha
  Plant response rating (0 to 100), Crabgrass: 100
[13]; [23]
  Plant response rating, Crabgrass: 100
[14]; [20]
  Plant response rating, Goosegrass: 100
[14]; [22]
  Plant response rating, Goosegrass: 100
[14]; preemergence, Rate 500 g/ha
  Plant response rating (0 to 100), Goosegrass: 100
[14]; [23]
  Plant response rating, Goosegrass: 100
[15]; [20]
  Plant response rating, Lambsquarters: 100
[15]; [22]
  Plant response rating, Lambsquarters: 100
[15]; preemergence
  Plant response rating (0 to 100), Lambsquarters: 100
[15]; [23]
  Plant response rating, Lambsquarters: 100
[16]; [20]
  Plant response rating, Pigweed: 0
[16]; [22]
  Plant response rating, Pigweed: 0
[16]; preemergence
  Plant response rating (0 to 100), Pigweed: 50
[16]; [23]
  Plant response rating, Pigweed: 0
Soybean (Glycine max); [20]
  Plant response rating, Soybean: 0
Soybean (Glycine max); [22]
  Plant response rating, Soybean: 0
Soybean (Glycine max); preemergence
  Plant response rating (0 to 100), Soybean: 70
Soybean (Glycine max); [23]
  Plant response rating, Soybean: 50
[17]; [20]
  Plant response rating, Cupgrass, Woolly: 95
[17]; [22]
  Plant response rating, Cupgrass, Woolly: 60
[17]; preemergence, Rate 500 g/ha
  Plant response rating (0 to 100), Cupgrass, Woolly: 100
[17]; [23]
  Plant response rating, Cupgrass, Woolly: 100

## CC(C)(C)c1ccn(C2CCN(c3cccc(OC(F)F)c3)C2=O)n1 (centres unmarked) [Compound 76]
[1]; [18]
  Plant response rating, Surinam grass: 100
[1]; [19]
  Plant response rating, Surinam grass: 80
[2]; [18]
  Plant response rating, Barnyardgrass: 100
[2]; [19]
  Plant response rating, Barnyardgrass: 100
[3]; [18]
  Plant response rating, Cocklebur: 0
[3]; [19]
  Plant response rating, Cocklebur: 0
Corn (Zea mays); [18]
  Plant response rating, Corn: 70
Corn (Zea mays); [19]
  Plant response rating, Corn: 0
[4]; [18]
  Plant response rating, Crabgrass: 100
[4]; [19]
  Plant response rating, Crabgrass: 100
[5]; [18]
  Plant response rating, Foxtail, Giant: 100
[5]; [19]
  Plant response rating, Foxtail, Giant: 100
[6]; [18]
  Plant response rating, Lambsquarters: 100
[6]; [19]
  Plant response rating, Lambsquarters: 100
[7]; [18]
  Plant response rating, Morningglory: 100
[7]; [19]
  Plant response rating, Morningglory: 0
[8]; [18]
  Plant response rating, Pigweed: 100
[8]; [19]
  Plant response rating, Pigweed: 100
Rice (Oryza saliva); [18]
  Plant response rating, Rice: 90
Rice (Oryza saliva); [19]
  Plant response rating, Rice: 70
[9]; [18]
  Plant response rating, Velvetleaf: 0
[9]; [19]
  Plant response rating, Velvetleaf: 0
Nightshade; [24]
  Plant response rating, Nightshade: 0
Nightshade; [20]
  Plant response rating, Nightshade: 30
Nightshade; [21]
  Plant response rating, Nightshade: 40
[10]; [24]
  Plant response rating, Surinam grass: 50
[10]; [20]
  Plant response rating, Surinam grass: 60
[10]; preemergence, Rate 250 g/ha
  Plant response rating (0 to 100), Surinam grass: 80
[10]; preemergence, Rate 500 g/ha
  Plant response rating (0 to 100), Surinam grass: 100
[11]; [24]
  Plant response rating, Cocklebur: 0
[11]; [20]
  Plant response rating, Cocklebur: 0
[11]; preemergence, Rate 250 g/ha
  Plant response rating (0 to 100), Cocklebur: 20
[11]; preemergence, Rate 500 g/ha
  Plant response rating (0 to 100), Cocklebur: 20
[12]; [20]
  Plant response rating, Ragweed, Common: 0
[12]; preemergence
  Plant response rating (0 to 100), Ragweed, Common: 0
[12]; [23]
  Plant response rating, Ragweed, Common: 0
[13]; [24]
  Plant response rating, Crabgrass: 100
[13]; [20]
  Plant response rating, Crabgrass: 100
[13]; preemergence, Rate 250 g/ha
  Plant response rating (0 to 100), Crabgrass: 100
[13]; preemergence, Rate 500 g/ha
  Plant response rating (0 to 100), Crabgrass: 100
[14]; [24]
  Plant response rating, Goosegrass: 100
[14]; [20]
  Plant response rating, Goosegrass: 100
[14]; preemergence, Rate 250 g/ha
  Plant response rating (0 to 100), Goosegrass: 100
[14]; preemergence, Rate 500 g/ha
  Plant response rating (0 to 100), Goosegrass: 100
[15]; [24]
  Plant response rating, Lambsquarters: 100
[15]; [20]
  Plant response rating, Lambsquarters: 100
[15]; preemergence
  Plant response rating (0 to 100), Lambsquarters: 100
[15]; [23]
  Plant response rating, Lambsquarters: 100
[16]; [20]
  Plant response rating, Pigweed: 100
[16]; preemergence
  Plant response rating (0 to 100), Pigweed: 100
[16]; [23]
  Plant response rating, Pigweed: 0
Soybean (Glycine max); [20]
  Plant response rating, Soybean: 0
Soybean (Glycine max); preemergence
  Plant response rating (0 to 100), Soybean: 0
Soybean (Glycine max); [23]
  Plant response rating, Soybean: 0
[17]; [24]
  Plant response rating, Cupgrass, Woolly: 50
[17]; [20]
  Plant response rating, Cupgrass, Woolly: 100
[17]; preemergence, Rate 250 g/ha
  Plant response rating (0 to 100), Cupgrass, Woolly: 100
[17]; preemergence, Rate 500 g/ha
  Plant response rating (0 to 100), Cupgrass, Woolly: 100
